# Key:
# [1] = system: human-derived tracheal/bronchial epithelial cells (EpiAirway Tissue Model); assay: Transepithelial electrical resistance (TER) of an epithelial cell monolayer; type: cell-based
# Experimental: Inserts are feed for each day of recovery. TER measurements were accomplished using the Endohm-12 Tissue Resistance Measurement Chamber connected to the EVOM Epithelial Voltohmmeter (World Precision Instruments, Sarasota, Fla.) with the electrode leads. The electrodes and a tissue culture blank insert were equilibrated for at least 20 minutes in MatTek medium with the power off prior to checking calibration. The background resistance was measured with 1.5 ml media in the Endohm tissue chamber and 300 μl media in the blank insert. The top electrode was adjusted so that it was close to, but not making contact with, the top surface of the insert membrane. Background resistance of the blank insert was about 5-20 ohms. […] TER values are a function of the surface area of the tissue. […] By this method of calculation, TER will be expressed as both Ohms*cm2 and percent original TER value. […] Several different lipid types (see Table 1) were screened to select for lipids that are capable of enhancing the permeation of a biological agent across an epithelial cell monolayer. […] A reduction in TER correlates with the ability to enhance the permeation of a molecule and biological agent across an epithelia.
# [2] = system: human-derived tracheal/bronchial epithelial cells (EpiAirway Tissue Model); assay: Cell viability (MTT assay); type: cell-based
# Experimental: Cell viability will be assessed using the MTT assay (MTT-100, MatTek kit). This kit measures the uptake and transformation of tetrazolium salt to formazan dye. Thawed and diluted MTT concentrate is prepared 1 hour prior to the end of the dosing period with the lipid by mixing 2 mL of MTT concentrate with 8 mL of MTT diluent. Each cell culture insert is washed twice with PBS containing Ca^+2 and Mg^+2 and then transferred to a new 96-well transport plate containing 100 μL of the mixed MTT solution per well. This 96-well transport plate is then incubated for three hours at 37° C. and 5% CO2. After the three hour incubation, the MTT solution is removed and the cultures are transferred to a second 96-well feeder tray containing 250 μL MTT extractant solution per well. An additional 150 μL of MTT extractan solution was added to the surface of each culture well and the samples sat at room temperature in the dark for a minimum of two hours and maximum of 24 hours. The insert membrane was then pierced with a pipet tip and the solutions in the upper and lower wells were allowed to mix. Two hundred microliters of the mixed extracted solution along with extracted blanks (negative control) was transferred to a 96-well plate for measurement with a microplate reader. The optical density (OD) of the samples was measured at 570 nm with the background subtraction at 650 nm on a plate reader. Cell viability was expressed as a percentage and calculated by dividing the OD readings for treated inserts by the OD readings for the PBS treated inserts and multiplying by 100. For the purposes of this assay, it was assumed that PBS had no effect on cell viability and therefore represented 100% cell viability.
# [3] = system: human-derived tracheal/bronchial epithelial cells (EpiAirway Tissue Model); assay: TER recovery / TER time course; type: cell-based; settings: lipids 500 μM, PN159 25 μM
# Experimental: TER recovery was calculated as described in the above paragraph.
# Reversibility is a critical factor in selecting epithelial cell permeabiling enhancers since the barrier function of the epithelial cells serves as the first line of defense against pathogens and the entrance of toxins into the body. The permeation enhancing lipids C16 PAF; C18 PAF; C16 Enantiomeric PAF; POVPC; C16-04: 1 PC and PGPC were incubated with a monolayer of human-derived tracheal/bronchial epithelial cells (EpiAirway™ Model System) and TER […] The lipid glucosyl sphingosine was also tested. Each permeation enhancing lipid (except PGPC) was applied at a concentration of 1000 μM for 15, 30 and 60 minutes. The permeation enhancing lipid PGPC and the lipid glucosyl sphingosine were applied at a concentration of 500 μM for 1, 3, 5, 30 and 60 minutes. TER measurements were taken immediately after each application to determine how quickly each lipid could reduce TER.
# […] […] PBS served as a negative control and Triton-X100™ served as a positive control.
# To asses how quickly the cells recovered after application and removal of the permeation enhancing lipid PGPC and the lipid glucosyl sphingosine, TER measurements were taken at 1, 3, 5, 7, and 9 hours post-treamtnet for each of the prior mentioned timed treatments (i.e., 1, 3, 5, 15, 30 and 60 minutes). TER recovery measures the reversibility of the lipid mediated effect on an epithelia. […] Hyptonic PBS served as a negative control for TER reduction and TER recovery.
# [4] = system: human-derived tracheal/bronchial epithelial cells (EpiAirway Tissue Model); assay: Peptide YY (PYY) permeation across epithelial cell monolayer; type: cell-based
# Experimental: (§1) Permeation is expressed as percent permeation and was calculated as follows: [formula] [formula] Terms
# In the instant example, the ability of permeation enhancing lipids to enhance the permeation of the biological agent, peptide YY (PYY; molecular weight of 3.7 kDa) across the epithelial cell monolayer model system (EpiAirway™) was measured. Also, the efficacy of a permeation enhancing lipid to enhance the permeation of insulin across and epithelial cell layer was measured. Refer to Example 2 of the instant application for general protocol details.
# [5] = system: human-derived tracheal/bronchial epithelial cells (EpiAirway Tissue Model); assay: FITC-Dextran permeation assay across epithelial cell monolayer; type: cell-based; settings: for Mean % FD3 Permeation: FITC-dextran 3000 (Table 4)
# Experimental: Each tissue insert was placed in an individual well containing 1 ml of MatTek basal media. On the apical surface of the inserts, 20 μl of test formulation was applied according to study design, and the samples were placed on a shaker (˜100 rpm) for 1.5 hours at 37° C. FITC-labeled dextran solution was added to inserts apically and a fluorescence measurement was taken from the basolateral media after the incubation period. Two hundred microliters of the basal media for each test formulation was transferred to a dark-wall fluorescent reading plate. Each test formulation was tested in triplicate. Fluorescent intensity was measured at 470 nM with the microplate fluorescence reader FLx800 (Bio-Tek Instruments, Inc., Winooski, Vt.). A FITC labeled dextran with a molecular weight of 3 kDA, 10 kDA, 20 kDA, 40 kDA, 70 kDA and/or 500 kDA was used to assess the ability of individual lipids to deliver a model protein across an epithelia.
# as §1
# PBS and 0.3% Triton-X100™ served as […]. […] FD permeation was presented as the percent of FD that crossed from the apical side of the epithelial cell monolayer to the basolateral cell surface.
# [6] = system: ciliary function in epithelial cell cultures; settings: Hingley et al. 1986; cited from earlier work
# [7] = system: human-derived tracheal/bronchial epithelial cells (EpiAirway Tissue Model); assay: in vitro
# Experimental: Normal, human-derived tracheal/bronchial epithelial cells will serve as the model cell system for assessing the lipids listed in Table 1. The cells are supplied by MatTek Corp. (Ashland, Mass.) as the EpiAirway™ Tissue Model. The cells are provided as a confluent monolayer on a Millipore Milicell-CM cell culture insert with a pore size of 0.4 μM, inner diameter of 0.8 cm and surface area of 0.6 cm^2 and comprised of transparent hydrophilic Teflon (PTFE). Upon receipt, the membranes are cultured in 1 ml basal media (phenol red-free and hydrocortisone-free Dulbecco's Modified Eagle's Media (DMEM) at 37° C./5% CO2 for 24-48 hours before use. Inserts are feed for each day of recovery.
# The amount of cell death was assayed by measuring the loss of lactate dehydrogenase (LDH) from the cells using a CytoTox 96 Cytotoxicity Assay Kit (Promega Corp., Madison, Wis.). A treatment of 1% Octylphenolpoly(ethyleneglycolether)x (Triton X-100™) diluted in PBS was used as a lysis control. One percent Triton X-100™ mediated cell lysis was normalized to 100%. For basal-lateral LDH levels, triplicates of 50 μl of the basal media were loaded into a 96-well assay plate. For apical LDH levels, 150 μl of Epi-Cm was added to the apical side of each chamber and mixed by pipeting. One hundred and fifty microliters was then removed and diluted 2-fold prior to performing the LDH assay. All apical LDH assay were performed in triplicate and with 50 μl of the diluted test solution. Fresh, cell-free culture medium will be used as a blank. Total LDH levels were determined by lysing cells in a final concentration of 0.9% Triton-X100™. Fifty microliters of substrate solution was added to each well and the plates incubated for 30 minutes at room temperature in the dark. Following incubation, 50 μl of stop solution was added to each well and the plates read on an optical density plate reader at […]. Cytotoxicity was expressed as a percentage calculated by subtracting the average absorbance of the PBS control wells as the endogenously released LDH level and expressing that value relative to the average Triton-X100 control, which represents total LDH content. [formula] Osmolality
# For the instant application, phosphate buffered saline (PBS) served as a negative control for both the TER assay and LDH (cytotoxicity) assay. […] TER measurements and LDH levels were taken immediately after a one hour treatment of the cultured cells with each lipid, unless specified otherwrise.
# TER reduction was expressed as the percent decrease in TER value from time zero to one hour post-treatment. Thus, greater percent reduction in TER represents less electrical resistance across the epithelial cell monolayer and consequently greater epithelial cell permeation. Cytotoxicity (LDH levels) for each lipid was expressed as a percent of the LDH levels measured after Triton-X100 treatment of the cells. Triton-X100™ LDH levels were normalized to 100%.
# [8] = lipid 500 μM / PYY 13.67 mg/mL (High)
# [9] = lipid / PYY 10 mg/mL, listed as PAF-antangonist
compound,measurement,setting,value
"CCCCCCCCCCCCC/C=C/[C@@H](O)[C@@H](N)CO[C@@H]1O[C@H](CO)[C@@H](O)[C@H](O)[C@H]1O [Glucosyl-sphingosine, D-Glucosyl-β1-1′-D-erythro-Sphingosine]",% Original TER,"[1]; lipid 500 μM / PYY 13.67 mg/mL (High), listed as Glucosyl Sphingosine",12%
same,% Original TER,"[1]; lipid 500 μM / PYY 13.67 mg/mL (High), listed as glucosyl sphingosine",reduced TER to levels equivalent of PN159
same,MTT levels (cell viability),[2]; compared with PBS negative control (Example 5),MTT levels comparable to that of the PBS negative control
same,% Cell Viability,[2]; [8],109%
same,time to full TER recovery (PBS control levels),"[3]; after 1, 3, 5, 15 and 30 minute treatments",fully recovered within one hour
same,time to full TER recovery (PBS control levels),[3]; after 60 minute treatment,did not reach PBS TER control levels until three hours post-treatment
same,% PYY Permeation,[4]; [8],1.17%
same,% FITC-Dextran Permeation FD3,[5]; lipid 500 μM (Table 5),4%
2-alkyl-4-hydroxyquinolines [pyo compound],concentration producing ciliostasis / inhibiting ciliary motility,[6],50 µg/mL
"CCCCCCCCCCCCCCCCOC[C@H](COP(=O)([O-])OCCCCCC[N+](C)(C)C)OC(C)=O [PAF-antagonist, 1-O-Hexadecyl-2-O-Acetyl-sn-Glycero-3-Phospho(N,N,N-trimethyl) Hexanolamine]",Mean % of Original TER Value,[1]; lipid 500 μM (Table 4),20%
same,Mean % of Original TER Value,"[1]; lipid 1000 μM, lower value = greater TER reduction (Table 4)",9%
same,% Original TER,[1]; lipid / PYY 10 mg/mL,reduced TER below that of the positive control PN159 and equivalent to the positive control Special Sauce
same,% Original TER,[1]; [9],2%
same,Mean % Relative Cytotoxic Effect (LDH),[7]; lipid 500 μM (Table 4),8%
same,Mean % Relative Cytotoxic Effect (LDH),[7]; lipid 1000 μM (Table 4),10%
same,% PYY Permeation,[4]; lipid / PYY 10 mg/mL,enhanced permeation of PYY equivalent to or above the positive control PN159
same,% PYY Permeation,[4]; [9],2.4%
same,Mean % FD3 Permeation,[5]; lipid 500 μM,6%
same,% FITC-Dextran Permeation FD10,[5]; lipid 1000 μM,5%
same,% FITC-Dextran Permeation FD40,[5]; lipid 1000 μM,2%
same,% FITC-Dextran Permeation FD3,[5]; lipid 1000 μM (Table 5),11%
same,Mean % FD3 Permeation,[5]; lipid 1000 μM,11%
same,permeation of FD3 relative to negative controls,[5]; text summary of Table 4,enhanced the permeation of FD3 above that of the negative controls
rhamnolipid,effect of limited exposure of tracheal explants,[6],ciliostasis

# Reference: patent US20070077283A1, “METHOD OF ENHANCING TRANSMUCOSAL DELIVERY OF THERAPEUTIC COMPOUNDS” (Nastech Pharmaceutical Company Inc., priority 2005, published 2007)
